A word on the IC50: it is the point on the concentration scale where inhibition reaches its midpoint.

Results on 17 molecules are retold here after patent US7119094B1, “Substituted polycyclic aryl and heteroarpyl pyrazinones useful for selective inhibition of the coagulation cascade” (Warner-Lambert Company, priority 2000, dated 2006).

Bounds are passed on as bounds.

Test [1] deals with T1, Human thrombin (Homo sapiens, UniProt P00734).
Test [2] concerns the target T2, recombinant soluble tissue factor and recombinant human factor VIIa (TF-VIIa) (Homo sapiens, UniProt P08709).
T2 construct: conversion of coagulation factor VII to VIIa by Xa; purchased American Diagnostica, Greenwich Conn; host or cells: factor VIIa purchased; soluble TF made in house in E. coli
Nature of the test: TF-VIIa Assay. The test is classed as biochemical. As to conditions: for IC50: cells without % sign, read-out: IC50 TF-VIIa.

Test [3] deals with T3, Trypsin (type 1× from porcine pancreas) (Sus scrofa, UniProt P00761).
T3 construct: Trypsin (5 ug/ml; type 1× from porcine pancreas); purchased Sigma, St. Louis Mo; host or cells: porcine pancreas
In words: Trypsin Assay. The format is biochemical. As to conditions: for IC50: cells without % sign, read-out: IC50 Trypsin II.

The target of the next test is T4, Human factor Xa (Homo sapiens, UniProt P00742).
T4 construct: Human factor Xa (0.3 nM); purchased Enzyme Research Laboratories, South Bend Ind
Nature of the test: Xa Assay. The format is biochemical. As to conditions: for IC50: cells without % sign; for % Inhibition Factor Xa (30 µM): at 30 µM, cells with % sign, and bare 0.

Test [4] has as its target T1, Human thrombin. Nature of the test: biochemical.

T4 sequence (P00742 235-488 limits assumed): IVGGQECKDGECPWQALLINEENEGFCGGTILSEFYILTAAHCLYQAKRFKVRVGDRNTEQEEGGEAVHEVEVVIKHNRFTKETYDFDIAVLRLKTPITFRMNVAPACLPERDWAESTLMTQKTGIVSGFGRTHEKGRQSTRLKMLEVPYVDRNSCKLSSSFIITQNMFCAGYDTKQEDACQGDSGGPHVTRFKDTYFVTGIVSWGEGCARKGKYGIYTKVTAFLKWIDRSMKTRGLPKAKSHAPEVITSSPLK
T4 sequence (P00742 41-179 limits assumed): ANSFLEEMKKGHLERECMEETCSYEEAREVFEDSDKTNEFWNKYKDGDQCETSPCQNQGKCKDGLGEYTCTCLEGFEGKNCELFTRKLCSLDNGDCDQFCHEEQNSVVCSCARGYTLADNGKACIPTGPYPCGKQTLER
T3 sequence (P00761 9-231): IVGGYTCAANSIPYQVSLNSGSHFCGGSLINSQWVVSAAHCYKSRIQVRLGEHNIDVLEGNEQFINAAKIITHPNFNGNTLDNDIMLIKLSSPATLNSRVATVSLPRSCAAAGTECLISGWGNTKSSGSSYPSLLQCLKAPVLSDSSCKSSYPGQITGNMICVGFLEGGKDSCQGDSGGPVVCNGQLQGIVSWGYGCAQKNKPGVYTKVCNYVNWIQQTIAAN
T2 sequence (P08709 213-466 limits assumed): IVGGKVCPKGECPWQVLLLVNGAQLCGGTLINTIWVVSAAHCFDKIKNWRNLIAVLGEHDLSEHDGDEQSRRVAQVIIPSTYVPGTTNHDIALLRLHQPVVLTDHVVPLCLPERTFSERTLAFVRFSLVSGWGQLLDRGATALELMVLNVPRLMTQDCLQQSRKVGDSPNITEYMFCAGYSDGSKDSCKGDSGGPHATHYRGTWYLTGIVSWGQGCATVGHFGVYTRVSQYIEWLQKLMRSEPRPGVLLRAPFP
T2 sequence (P08709 61-212 limits assumed): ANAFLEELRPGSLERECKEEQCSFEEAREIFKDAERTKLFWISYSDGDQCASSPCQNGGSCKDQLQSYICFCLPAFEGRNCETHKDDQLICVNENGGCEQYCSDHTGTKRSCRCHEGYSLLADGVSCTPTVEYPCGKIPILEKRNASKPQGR
T2 sequence (P13726 33-251 partner limits assumed): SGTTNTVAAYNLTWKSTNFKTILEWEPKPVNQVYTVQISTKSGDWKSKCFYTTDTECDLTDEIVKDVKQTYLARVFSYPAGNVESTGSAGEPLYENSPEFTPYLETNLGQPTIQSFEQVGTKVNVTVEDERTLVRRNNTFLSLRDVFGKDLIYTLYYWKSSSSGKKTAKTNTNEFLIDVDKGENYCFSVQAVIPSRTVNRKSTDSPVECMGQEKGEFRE

With `O=C(Cn1c(-c2ccc(-c3ccccc3)cc2)c(Cl)nc(NCCc2cccnc2)c1=O)NCCc1ccncc1` [Example E-0053], the “% Inhibition Thrombin II (100 νM)” value at Human thrombin [1] is 0%. Further, the “% Inhibition TF-VIIa (100 νM)” value in test [2] worked out at 0%. The “% Inhibition Trpysin II (100 νM)” value in test [3] worked out at 0%.
With `O=C(Cn1c(-c2ccc(-c3ccccc3)cc2)c(Cl)nc(NCc2ccncc2)c1=O)NCCc1ccncc1` [Example E-0056], the “% Inhibition Thrombin II (100 νM)” value at Human thrombin [1] was found to be 0%. For the same molecule, the “% Inhibition TF-VIIa (100 νM)” value in test [2] was 0%. The “% Inhibition Trpysin II (100 νM)” value in test [3] is reported as 0%.
For the molecule `O=C(Cn1c(-c2ccc(-c3ccccc3)cc2)c(Cl)nc(NCCc2ccncc2)c1=O)NCCc1ccncc1` [Example E-0054], the “% Inhibition Thrombin II (100 νM)” value at Human thrombin [1] amounted to 0%.
For `O=C(Cn1c(-c2ccc(-c3ccccc3)cc2)c(Cl)nc(NCCc2ccc(Cl)cc2)c1=O)NCCc1cccnc1` [Example E-0119], the “% Inhibition Thrombin II (100 νM)” value on Human thrombin [1] is 0%. Also, the “% Inhibition Trpysin II (100 νM)” value in test [3] turned out to be 10%.
As to `CCC(C)(C)Nc1nc(Cl)c(-c2cccc(N)c2)n(CC(=O)NCc2ccc(C(=N)N)cc2)c1=O` [1526-06], the figures for the 50% inhibitory concentration (IC50) (in test [2]; in test [3]; at Human factor Xa) were 170 nM, 210 nM and greater than 30000 nM, respectively.
In the case of `CC(C(=O)NCc1ccc(C(=N)N)cc1)n1c(-c2ccccc2)c(Cl)nc(NC2CCC2)c1=O` (centres unmarked) [Example 1517-09], the IC50 in test [2] is 2600 nM; in test [3], 1500 nM. At Human factor Xa, the “% Inhibition Factor Xa (30 µM)” value is given as 0%.
Turning to `N=C(N)c1ccc(C(=O)NCCn2c(-c3cccc(N)c3)c(Cl)nc(NC3CCC3)c2=O)cc1` [Example 136], the IC50 against Human thrombin [4] was greater than 30000 nM.
Turning to `N=C(N)c1ccc(CNC(=O)Cn2c(-c3cccc(N)c3)c(Cl)nc(NC3CC4CCC3C4)c2=O)cc1` (centres unmarked) [1526-30], the half-maximal inhibitory concentration (IC50) was 80 nM in test [2], 200 nM in test [3] and greater than 30000 nM against Human factor Xa.
For the molecule `CC(C(=O)NCc1ccc(C(=N)N)cc1)n1c(-c2ccccc2)c(Cl)nc(NCCc2cccc(Cl)c2)c1=O` (centres unmarked) [Example 1517-23], the half-maximal inhibitory concentration (IC50) in test [2] is 2300 nM; in test [3], 1400 nM. On Human factor Xa, the “% Inhibition Factor Xa (30 µM)” value is on record as 0%.
On to `O=C(Cn1c(-c2ccc(-c3ccccc3)cc2)c(Cl)nc(NCCc2cccc(Cl)c2)c1=O)NCCc1cccnc1` [Example E-0116], for which, on Human thrombin [1], the “% Inhibition Thrombin II (100 νM)” value is on record as 0%. In addition, the “% Inhibition Trpysin II (100 νM)” value in test [3] is 10%.
As for `O=C(Cn1c(-c2ccc(-c3ccccc3)cc2)c(Cl)nc(NCc2ccccc2)c1=O)NCCc1cccnc1` [Example E-0110], on Human thrombin [1], the “% Inhibition Thrombin II (100 νM)” value is 0%. The “% Inhibition TF-VIIa (100 νM)” value in test [2] stood at 0%.
For `CC(C(=O)NCc1ccc(C(=N)N)cc1)n1c(-c2ccccc2)c(Cl)nc(NCc2ccccc2)c1=O` (centres unmarked) [Example 1517-05], the concentration for half-maximal inhibition (IC50) in test [2] was 4600 nM; in test [3], 1200 nM. Also, at Human factor Xa, the “% Inhibition Factor Xa (30 µM)” value is recorded as 0%.
For the molecule `N=C(N)c1ccc(CNC(=O)Cn2c(-c3cccc(N)c3)c(Cl)nc(NCCCCCC(N)=O)c2=O)cc1` [1543-11], the IC50 was determined as 70 nM in test [2] and 40 nM in test [3]. For the same molecule, on Human factor Xa, the “% Inhibition Factor Xa (30 µM)” value is given as 24%.
Turning to `CCN(CC)CC(C)Nc1nc(Cl)c(-c2cccc(N)c2)n(CC(=O)NCc2ccc(C(=N)N)cc2)c1=O` (centres unmarked) [1543-25], the half-maximal inhibitory concentration (IC50) came to 280 nM in test [2] and 50 nM in test [3]. The “% Inhibition Factor Xa (30 µM)” value on Human factor Xa was found to be 26%.
In the case of `CC(C)CC(C)Nc1nc(Cl)c(-c2cccc(N)c2)n(CC(=O)NCc2ccc(C(=N)N)cc2)c1=O` (centres unmarked) [1526-17], the values for the IC50 (in test [2]; in test [3]; against Human factor Xa) were 80 nM, 170 nM and greater than 30000 nM, respectively.
For `CC(C(=O)NCc1ccc(C(=N)N)cc1)n1c(-c2ccccc2)c(Cl)nc(NCc2ccccc2)c1=O` (centres unmarked) [Example 1517-03], the 50% inhibitory concentration (IC50) amounted to 9000 nM in test [2] and 2000 nM in test [3]. Besides, on Human factor Xa, the “% Inhibition Factor Xa (30 µM)” value is reported as 0%.
`O=C(Cn1c(-c2ccc(-c3ccccc3)cc2)c(Cl)nc(NCCN2CCOCC2)c1=O)NCCc1ccncc1` [Example E-0055]: the “% Inhibition Thrombin II (100 νM)” value at Human thrombin [1] amounted to 0%. The “% Inhibition TF-VIIa (100 νM)” value in test [2] is given as 0%. For the same molecule, the “% Inhibition Trpysin II (100 νM)” value in test [3] was 0%.
